Results published in patent US12172983B2, “EGFR inhibitors” (Blueprint Medicines Corporation, priority 2019, dated 2024).
Read-outs that look alike come from different tables or passages of the source.

Key:
EGFR (L858R T790M C797S) = target: T1, EGFR (L858R T790M C797S) (Homo sapiens, UniProt P00533, C797S/L858R/T790M); assay: Biochemical EGFR inhibition assay (Caliper mobility shift), EGFR LRTMCS mutant; conditions: inhibitory activity against EGFR LRTMCS mutant; apparent IC50; read-out: Ext Enz LRTMCS
T1 construct: purchased SignalChem E10-122VG
T1 sequence (P00533 25-1210 T790M/C797S/L858R): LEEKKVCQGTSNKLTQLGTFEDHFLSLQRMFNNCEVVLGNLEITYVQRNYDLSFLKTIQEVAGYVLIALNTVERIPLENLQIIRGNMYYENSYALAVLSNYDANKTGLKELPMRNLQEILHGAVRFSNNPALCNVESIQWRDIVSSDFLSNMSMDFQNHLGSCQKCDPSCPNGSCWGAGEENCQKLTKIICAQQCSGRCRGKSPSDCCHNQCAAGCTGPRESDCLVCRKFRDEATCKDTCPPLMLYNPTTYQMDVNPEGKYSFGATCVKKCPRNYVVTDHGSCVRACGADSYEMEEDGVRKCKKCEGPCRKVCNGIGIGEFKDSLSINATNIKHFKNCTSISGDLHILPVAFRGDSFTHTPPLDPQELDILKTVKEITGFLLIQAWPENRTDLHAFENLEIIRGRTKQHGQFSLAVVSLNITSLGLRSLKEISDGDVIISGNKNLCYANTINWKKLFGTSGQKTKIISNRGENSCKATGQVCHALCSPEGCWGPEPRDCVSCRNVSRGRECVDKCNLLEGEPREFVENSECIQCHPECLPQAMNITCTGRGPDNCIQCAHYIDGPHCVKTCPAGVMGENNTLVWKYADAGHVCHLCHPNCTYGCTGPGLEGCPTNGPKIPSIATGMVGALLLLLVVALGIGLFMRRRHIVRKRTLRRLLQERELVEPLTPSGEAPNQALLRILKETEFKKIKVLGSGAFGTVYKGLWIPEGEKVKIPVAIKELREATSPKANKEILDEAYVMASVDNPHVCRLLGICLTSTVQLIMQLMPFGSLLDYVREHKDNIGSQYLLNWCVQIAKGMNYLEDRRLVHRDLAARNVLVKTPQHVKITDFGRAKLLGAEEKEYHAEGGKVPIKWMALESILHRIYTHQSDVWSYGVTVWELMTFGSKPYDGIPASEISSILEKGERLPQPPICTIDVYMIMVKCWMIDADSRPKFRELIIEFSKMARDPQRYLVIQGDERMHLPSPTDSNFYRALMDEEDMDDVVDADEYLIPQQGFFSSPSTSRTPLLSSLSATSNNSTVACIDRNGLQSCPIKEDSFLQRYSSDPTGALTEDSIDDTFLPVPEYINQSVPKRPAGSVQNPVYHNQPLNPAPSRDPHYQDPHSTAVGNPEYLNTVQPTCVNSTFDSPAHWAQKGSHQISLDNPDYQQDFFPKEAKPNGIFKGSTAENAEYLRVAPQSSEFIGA
Description: Reactions proceeded until between 10% to 20% total peptides were phosphorylated at room temperature (25° C.) and were terminated with 35 mM 2,2′,2″,2′″-(ethane-1,2-diyldinitrilo)tetraacetic acid (EDTA). Product was detected using the Caliper mobility shift detection method where the phosphorylated peptide (product) and substrate were electrophoretically separated and measured. Percent activity was plotted against log concentration of compound and points to generate an apparent IC50.

[1] = tested on: phosphorylation of EGFR (Tyr1068) in NCI-H1975 cell line that harbors the EGFR L858R T790M mutations; assay: NCI-H1975 pEGFR AlphaLISA assay; type: cell-based; conditions: 4-5 hours incubation, read-out: Ext pEGFR H1975
Description: Inhibitory effects of the compounds of the disclosure were evaluated in cellular assays that measure level of intracellular phosphorylation of EGFR in NCI-H1975 cell line that harbors the EGFR L858R T790M mutations (ATCC, CRL-5908) using AlphaLISA sureFire ultra p-EGFR (Tyr1068) assay kit (PerkinElmer, ALSU-PEGFR-A50K). The NCI-H1975 cells were seeded at 12.5K/well in 22 μL into 384 well opti plate (PerkinElmer, 6007299) and adhering overnight at 37 C/5% CO2. On the next day, the test compounds and DMSO control were added into H1975 cell plate followed by incubation at 37 C/5% CO2 for 4-5 hours. The cells were then spin down in the 384-well plate and lysed with 10 μL of 1×AlphaLISA lysis buffer followed by shaking at 600 rpm for 10 minutes at room temperature. After that, 5 μL of an acceptor bead mix was added to each well followed by incubation at room temperature for 1.5-2 h in dark. Then 5 μL of a donor bead mix was added to each well followed by overnight incubation at room temperature in dark. On the next day, the plate was read at a compatible plate reader to obtain pEGFR signal. Percent of pEGFR inhibition was plotted against log concentration of compounds to generate IC50 values.

[2] = Homo sapiens, NCI-H1975, inhibition of phosphorylation of mutant EGFR in NCI-H1975 cells
[3] = inhibition of phosphorylation of mutant EGFR in NCI-H1975 cells

Structure (SMILES) | IC50 (EGFR (L858R T790M C797S)) [nM] | IC50 [1, 2] [nM] | IC50 [1, 3] [nM]
CN[C@H]1CCN(c2nccc(Nc3cc4c(C(C)C)ccc(N5C[C@H](CS(C)(=O)=O)[C@H]5C)c4cn3)n2)C[C@H]1F (single isomer, unassigned) [Compound 306, N-{2-[(3R,4S)-3-fluoro-4-(methylamino)piperidin-1-yl]pyrimidin-4-yl}-8-[(2R,3S)-3-(methanesulfonylmethyl)-2-methylazetidin-1-yl]-5-(propan-2-yl)isoquinolin-3-amine or N-{2-[(3S,4R)-3-fluoro-4-(methylamino)piperidin-1-yl]pyrimidin-4-yl}-8-[(2R,3S)-3-(methanesulfonylmethyl)-2-methylazetidin-1-yl]-5-(propan-2-yl)isoquinolin-3-amine] | 20.1 to 30 | 20.1 to 30 | 
CO[C@H]1CCN(c2nccc(Nc3cc4c(C(C)C)ccc(N5C[C@H](CS(C)(=O)=O)[C@H]5C)c4cn3)n2)C[C@@H]1O (single isomer, unassigned) [Compound 92, (3S,4S)-1-(4-(5-isopropyl-8-(2R,3S)-2-methyl-3-(methylsulfonylmethyl)azetidin-1-yl)isoquinolin-3-ylamino)pyrimidin-2-yl)-4-methoxypiperidin-3-ol or (3R,4R)-1-(4-(5-isopropyl-8-((2R,3S)-2-methyl-3-(methylsulfonylmethyl)azetidin-1-yl)isoquinolin-3-ylamino)pyrimidin-2-yl)-4-methoxypiperidin-3-ol] | ≤ 15 | ≤ 10 | 
CC(C)c1ccc(N2C[C@H](CS(C)(=O)=O)[C@H]2C)c2cnc(Nc3ccnc(N4CC[C@](C)(O)[C@H](O)C4)n3)cc12 (single isomer, unassigned) [Compound 101, (4R)-1-[4-({8-[(2R,3S)-3-(methanesulfonylmethyl)-2-methylazetidin-1-yl]-5-(propan-2-yl)isoquinolin-3-yl}amino)pyrimidin-2-yl]-4-methylpiperidine-3,4-diol or (3S,4R)-1-[4-({8-[(2R,3S)-3-(methanesulfonylmethyl)-2-methylazetidin-1-yl]-5-(propan-2-yl)isoquinolin-3-yl}amino)pyrimidin-2-yl]-4-methylpiperidine-3,4-diol] | ≤ 15 |  | 10.1 to 20
CO[C@@H]1CCN(c2nccc(Nc3cc4c(C(C)C)ncc(N5CC(CS(C)(=O)=O)C5)c4cn3)n2)C[C@@H]1F [Compound 74, N-{2-[(3S,4R)-3-fluoro-4-methoxypiperidin-1-yl]pyrimidin-4-yl}-8-[3-(methanesulfonylmethyl)azetidin-1-yl]-5-(propan-2-yl)-2,6-naphthyridin-3-amine] | ≤ 15 | ≤ 10 | 
CO[C@H]1CCN(c2nccc(Nc3cc4c(C(C)C)ncc(N5C[C@H](CS(C)(=O)=O)[C@H]5C)c4cn3)n2)C[C@H]1F [Compound 140, N-{2-[(3R,4S)-3-fluoro-4-methoxypiperidin-1-yl]pyrimidin-4-yl}-8-[(2R,3S)-3-(methanesulfonylmethyl)-2-methylazetidin-1-yl]-5-(propan-2-yl)-2,6-naphthyridin-3-amine] | ≤ 15 | ≤ 10 | 
CCS(=O)(=O)C[C@H]1CN(c2ccc(C(C)C)c3cc(Nc4ccnc(N5CC[C@@H](OCCO)C(F)(F)C5)n4)ncc23)[C@@H]1C (single isomer, unassigned) [Compound 302, 2-{[(4R)-1-[4-({8-[(2R,3S)-3-[(ethanesulfonyl)methyl]-2-methylazetidin-1-yl]-5-(propan-2-yl)isoquinolin-3-yl}amino)pyrimidin-2-yl]-3,3-difluoropiperidin-4-yl]oxy}ethan-1-ol or 2-{[(4S)-1-[4-({8-[(2R,3S)-3-[(ethanesulfonyl)methyl]-2-methylazetidin-1-yl]-5-(propan-2-yl)isoquinolin-3-yl}amino)pyrimidin-2-yl]-3,3-difluoropiperidin-4-yl]oxy}ethan-1-ol] | 15.1 to 20 | ≤ 10 | 
CO[C@@H]1CCN(c2nccc(Nc3cc4c(C(C)C)cnc(N5CC(CS(C)(=O)=O)C5)c4cn3)n2)C[C@]1(C)F (single isomer, unassigned) [Compound 143] | ≤ 15 | ≤ 10 | 
CC(C)c1ccc(N2C[C@H](CS(C)(=O)=O)[C@H]2C)c2cnc(Nc3ccnc(N4CC[C@@H](OC[C@H](C)O)[C@@H](F)C4)n3)cc12 (single isomer, unassigned) [Compound 248, (2R)-1-{[(3S,4R)-3-fluoro-1-[4-({8-[(2R,3S)-3-(methanesulfonylmethyl)-2-methylazetidin-1-yl]-5-(propan-2-yl)isoquinolin-3-yl}amino)pyrimidin-2-yl]piperidin-4-yl]oxy}propan-2-ol or (2S)-1-{[(3S,4R)-3-fluoro-1-[4-({8-[(2R,3S)-3-(methanesulfonylmethyl)-2-methylazetidin-1-yl]-5-(propan-2-yl)isoquinolin-3-yl}amino)pyrimidin-2-yl]piperidin-4-yl]oxy}propan-2-ol] | ≤ 15 |  | ≤ 10
CC(C)c1ccc(N2CC(CS(C)(=O)=O)C2)c2cnc(Nc3ccnc(N4C[C@H](F)[C@H](O)C(C)(C)C4)n3)cc12 (single isomer, unassigned) [Compound 109, (4S,5R)-5-fluoro-1-[4-({8-[3-(methanesulfonylmethyl)azetidin-1-yl]-5-(propan-2-yl)isoquinolin-3-yl}amino)pyrimidin-2-yl]-3,3-dimethylpiperidin-4-ol or (4R,5S)-5-fluoro-1-[4-({8-[3-(methanesulfonylmethyl)azetidin-1-yl]-5-(propan-2-yl)isoquinolin-3-yl}amino)pyrimidin-2-yl]-3,3-dimethylpiperidin-4-ol] | ≤ 15 | ≤ 10 | 
CO[C@@H]1CCN(c2nccc(Nc3cc4c(C(C)C)ccc(N5CC(CS(C)(=O)=O)C5)c4cn3)n2)CC1(F)F (single isomer, unassigned) [Compound 159] | 15.1 to 20 | 20.1 to 30 | 
CC(C)c1ccc(N2C[C@H](CS(C)(=O)=O)[C@H]2C)c2cnc(Nc3ccnc(N4CC[C@H](OCCO)[C@H](F)C4)n3)cc12 [Compound 228, 2-((3R,4S)-3-fluoro-1-(4-(5-isopropyl-8-((2R,3S)-2-methyl-3-(methylsulfonylmethyl)azetidin-1-yl)isoquinolin-3-ylamino)pyrimidin-2-yl)piperidin-4-yloxy)ethanol] | ≤ 15 | ≤ 10 | 
C[C@H](CO)c1ccc(N2C[C@@H](CS(C)(=O)=O)[C@@H]2C)c2cnc(Nc3ccnc(N4CC[C@@H](O)[C@@](C)(F)C4)n3)cc12 (single isomer, unassigned) [Compound 196, (3S,4R)-3-fluoro-1-[4-({5-[(2S)-1-hydroxypropan-2-yl]-8-[(2S,3R)-3-(methanesulfonylmethyl)-2-methylazetidin-1-yl]isoquinolin-3-yl}amino)pyrimidin-2-yl]-3-methylpiperidin-4-ol or (3S,4R)-3-fluoro-1-[4-({5-[(2R)-1-hydroxypropan-2-yl]-8-[(2S,3R)-3-(methanesulfonylmethyl)-2-methylazetidin-1-yl]isoquinolin-3-yl}amino)pyrimidin-2-yl]-3-methylpiperidin-4-ol] | ≤ 15 | 10.1 to 20 | 
CCS(=O)(=O)CC1CN(c2ccc(C(C)C)c3cc(Nc4ccnc(N5CC[C@@H](O)[C@@](C)(F)C5)n4)ncc23)C1 (single isomer, unassigned) [Compound 110] | ≤ 15 | ≤ 10 | 
CC(C)c1ncc(N2C[C@H](CS(C)(=O)=O)[C@H]2C)c2cnc(Nc3ccnc(N4CC[C@H]5COC[C@H]54)n3)cc12 (single isomer, unassigned) [Compound 267, N-(2-((3aR,6aS)-hexahydro-1H-furo[3,4-b]pyrrol-1-yl)pyrimidin-4-yl)-5-isopropyl-8-((2R,3S)-2-methyl-3-((methylsulfonyl)methyl)azetidin-1-yl)-2,6-naphthyridin-3-amine or N-(2-((3aS,6aR)-hexahydro-1H-furo[3,4-b]pyrrol-1-yl)pyrimidin-4-yl)-5-isopropyl-8-((2R,3S)-2-methyl-3-((methylsulfonyl)methyl)azetidin-1-yl)-2,6-naphthyridin-3-amine] | ≤ 15 | ≤ 10 | 
